Experimental findings from patent publication US20240246931A1, “COMPOUNDS AS PD1/PD-L1 INHIBITORS AND METHODS THEREOF” (JUBILANT PRODEL LLC, priority 2021, published 2024) are described below.

One data set addresses T1, PD-1/PD-L1 interaction (Homo sapiens, UniProt Q9NZQ7).
T1 construct: purchased CisBio 63ADK000CPAPEG
Kind of data set: PD-1/PD-L1 HTRF binding assay (CisBio kit). The following applies: HTRF PD1/PD-L1 inhibition assay. As to the method: PD-L1 Enzyme Assay: Homogenous Time-Resolved Fluorescence (HTRF) Binding Assay
All binding studies were performed using PD-1/PD-L1 Binding Assay Kit from CisBio (Catalog #63ADK000CPAPEG), according to the manufacturer's protocol. The interaction between Tag1-PD-1 and […] was detected by anti-Tag1-Eu^3+ (HTRF donor) and anti-Tag2-XL665 (HTRF acceptor). When the donor and acceptor antibodies were brought to close proximity due to PD-1 and PD-L1 binding, excitation of the donor antibody triggered fluorescent resonance energy transfer (FRET) towards the acceptor antibody, which in turn emitted specifically at 665 nm. This specific signal is positively proportional to PD-1/PD-L1 interaction. The compounds blocking PD-1/PD-L1 interaction will cause a reduction in HTRF signal. The necessary reagents were mixed in the following order: 2 μL compounds (or diluents buffer), 4 μL PD-L1 protein, 4 μL PD-1 protein. After an incubation of 15 minutes, 5 μL of anti-Tag1-Eu^3+ and 5 μL of anti-Tag2-XL665 were added. The plate was sealed and incubated at room temperature for 1 h. The fluorescence emission was read at two different wavelengths (665 nm and 620 nm) on a BMG PheraStar® multi-plate reader.
Results were calculated from the 665 nm and 620 nm fluorescence signal and expressed in HTRF ratio=(665 nm/620 nm)×10^4.
Compounds having IC50<100 nM are designated as “A”; 100-500 nM are designated as “B”; and >500 nM are designated as “C” respectively.

Data set [1] is described as follows: Metabolic stability in human liver microsomes. It is filed as in vitro ADME. The following applies: human liver microsomes 1.0 mg/mL, compound 1 μM, NADPH, first number of HLM/MLM cell. The text has this:
(§1) Metabolic Stability in Liver Microsomes
(§2) The purpose of this experiment is to measure the metabolic half-life of NCEs in sub-cellular fractions such as human liver microsomes (HLM) or mouse liver microsomes (MLM). This provides an in vitro means to calculate intrinsic hepatic clearance, and to support the prediction of human pharmacokinetics. This approach has been successfully utilized at early phase of drug discovery projects, to provide SAR input for reducing metabolic instability and for predicting in vivo hepatic clearance.
(§3) Procedure: Potassium phosphate buffer (66.7 mM, pH 7.4) containing liver microsomes (mouse and human) (1.0 mg/mL) was pre-incubated separately with compound (1 μM) and positive control (verapamil, 1 μM) in a 37° C. water bath for 5 min. The reactions were initiated by adding 20 μL of 10 mM NADPH. Reactions without NADPH (0 and 30 min) were also incubated to rule out non-NADPH metabolism or chemical instability in the incubation buffer. All reactions were terminated using 200 μL of ice-cold acetonitrile containing internal standard at 0, 5, 15 and 30 min. The vials were centrifuged at 3000 rpm for 15 min. The supernatants thus obtained were analyzed on LC-MS/MS to monitor the disappearance of test compound.
On the technique in general: Microsomes from liver hold many membrane-bound enzymes, among them those of drug oxidation.

Data set [2] can be described thus: Metabolic stability in mouse liver microsomes. In kind it is in vitro ADME. Particulars: mouse liver microsomes 1.0 mg/mL, compound 1 μM, NADPH, second number of HLM/MLM cell.
Description: as §1, §2, §3

Molecules are shown by their SMILES. Where a name gives a salt, the structure may show the parent alone. Some results are limits rather than exact numbers.

T1 sequence (Q9NZQ7 19-238 limits assumed): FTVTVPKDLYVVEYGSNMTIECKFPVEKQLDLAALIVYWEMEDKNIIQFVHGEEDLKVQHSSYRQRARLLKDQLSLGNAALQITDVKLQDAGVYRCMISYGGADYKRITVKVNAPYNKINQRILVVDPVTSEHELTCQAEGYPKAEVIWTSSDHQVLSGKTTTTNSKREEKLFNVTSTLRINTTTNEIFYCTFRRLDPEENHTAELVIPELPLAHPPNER

As usually defined, the IC50 is the concentration that gives 50% inhibition. On PD-1/PD-L1 interaction, `Cc1c(COc2cc(OCc3cncc(C#N)c3)c(CN3CCCC[C@H]3CO)c3c2CCC3)cccc1-c1ccccc1` [Example 1, (S)-5-(((4-((2-(hydroxymethyl)piperidin-1-yl)methyl)-7-((2-methyl-[1,1′-biphenyl]-3-yl)methoxy)-2,3-dihydro-1H-inden-5-yl)oxy)methyl)nicotinonitrile] registered an IC50 of under 100 nM. The “HLM % remaining @ 30 min” value in data set [1] is 72%. Moreover, the “MLM % remaining @ 30 min” value in data set [2] turned out to be 83%.

Regarding `Cc1c(COc2cc(OCc3cccc(C#N)c3)c(CN3CCCC[C@H]3CO)c3c2CCC3)cccc1-c1ccccc1` [Example 2, (S)-3-(((4-((2-(hydroxymethyl)piperidin-1-yl)methyl)-7-((2-methyl-[1,1′-biphenyl]-3-yl)methoxy)-2,3-dihydro-1H-inden-5-yl)oxy)methyl)benzonitrile], the IC50 on PD-1/PD-L1 interaction was under 100 nM. Also, the “HLM % remaining @ 30 min” value in data set [1] amounted to 58%. In data set [2], the “MLM % remaining @ 30 min” value turned out to be 62%.

As to `N#Cc1cncc(COc2cc(OCc3cccc(-c4ccccc4)c3C#N)c3c(c2CN2CCC[C@H]2CO)CCC3)c1` [Example 3, (S)-5-(((7-((2-cyano-[1,1′-biphenyl]-3-yl)methoxy)-4-((2-(hydroxymethyl)pyrrolidin-1-yl)methyl)-2,3-dihydro-1H-inden-5-yl)oxy)methyl)nicotinonitrile], the half-inhibitory concentration (IC50) at PD-1/PD-L1 interaction is under 100 nM. The “HLM % remaining @ 30 min” value in data set [1] is recorded as 22%. Moreover, in data set [2], the “MLM % remaining @ 30 min” value was 14%.

The compound `N#Cc1cccc(COc2cc(OCc3cccc(-c4ccccc4)c3C#N)c3c(c2CN2CCC[C@H]2CO)CCC3)c1` [Example 4, (S)-3-(((6-((3-cyanobenzyl)oxy)-7-((2-(hydroxymethyl)pyrrolidin-1-yl)methyl)-2,3-dihydro-1H-inden-4-yl)oxy)methyl)-[1,1′-biphenyl]-2-carbonitrile] showed an IC50 at PD-1/PD-L1 interaction of under 100 nM. Also, in data set [1], the “HLM % remaining @ 30 min” value is given as 20/20%. Besides, the “MLM % remaining @ 30 min” value in data set [2] is on record as 20/20%.

Turning to `N#Cc1cncc(COc2cc(OCc3cccc(-c4ccccc4)c3C#N)c3c(c2CN2CCCC[C@H]2CO)CCC3)c1` [Example 5, (S)-5-(((7-((2-cyano-[1,1′-biphenyl]-3-yl)methoxy)-4-((2-(hydroxymethyl)piperidin-1-yl)methyl)-2,3-dihydro-1H-inden-5-yl)oxy)methyl)nicotinonitrile], the IC50 at PD-1/PD-L1 interaction is under 100 nM. Moreover, the “HLM % remaining @ 30 min” value in data set [1] was found to be 16%. In addition, in data set [2], the “MLM % remaining @ 30 min” value worked out at 13%.

Take `Cc1c(COc2cc(OCc3cncc(C#N)c3)c(CN3C[C@H](O)C[C@H]3CO)c3c2CCC3)cccc1-c1ccccc1` [Example 6]: the IC50 on PD-1/PD-L1 interaction was under 100 nM. In addition, the “HLM % remaining @ 30 min” value in data set [1] worked out at 67%. Moreover, in data set [2], the “MLM % remaining @ 30 min” value came to 87%.

`Cc1c(COc2cc(OCc3cccc(C#N)c3)c(CN3CCC[C@H]3CO)c3c2CCC3)cccc1-c1ccccc1` [Example 7, (S)-3-(((4-((2-(hydroxymethyl)pyrrolidin-1-yl)methyl)-7-((2-methyl-[1,1′-biphenyl]-3-yl)methoxy)-2,3-dihydro-1H-inden-5-yl)oxy)methyl)benzonitrile] yielded an IC50 on PD-1/PD-L1 interaction of under 100 nM. The “HLM % remaining @ 30 min” value in data set [1] is reported as 66%. Besides, the “MLM % remaining @ 30 min” value in data set [2] was found to be 76%.

As for `Cc1c(COc2cc(OCc3cncc(C#N)c3)c(CN3CCC[C@H]3CO)c3c2CCC3)cccc1-c1ccccc1` [Example 8, (S)-5-(((4-((2-(hydroxymethyl)pyrrolidin-1-yl)methyl)-7-((2-methyl-[1,1′-biphenyl]-3-yl)methoxy)-2,3-dihydro-1H-inden-5-yl)oxy)methyl)nicotinonitrile], the concentration for half-maximal inhibition (IC50) on PD-1/PD-L1 interaction was under 100 nM. In data set [1], the “HLM % remaining @ 30 min” value is recorded as 61%. In data set [2], the “MLM % remaining @ 30 min” value is on record as 85%.

With `Cc1c(COc2cc(OCc3cncc(C#N)c3)c(CN3CCOC[C@H]3CO)c3c2CCC3)cccc1-c1ccccc1` [Example 9, (R)-5-(((4-((3-(hydroxymethyl)morpholino)methyl)-7-((2-methyl-[1,1′-biphenyl]-3-yl)methoxy)-2,3-dihydro-1H-inden-5-yl)oxy)methyl)nicotinonitrile], the IC50 on PD-1/PD-L1 interaction is under 100 nM. Moreover, in data set [1], the “HLM % remaining @ 30 min” value was found to be 8%. Besides, in data set [2], the “MLM % remaining @ 30 min” value is recorded as 21%.

At PD-1/PD-L1 interaction, `Cc1c(COc2cc(OCc3cncc(C#N)c3)c(CN3CCC3CO)c3c2CCC3)cccc1-c1ccccc1` (stereo not drawn) [Example 10, 5-(((4-((2-(hydroxymethyl)azetidin-1-yl)methyl)-7-((2-methyl-[1,1′-biphenyl]-3-yl)methoxy)-2,3-dihydro-1H-inden-5-yl)oxy)methyl)nicotinonitrile] had an IC50 of under 100 nM. Further, the “HLM % remaining @ 30 min” value in data set [1] was 69%. Also, the “MLM % remaining @ 30 min” value in data set [2] was 70%.

In the case of `Cc1c(COc2cc(OCc3cncc(C#N)c3)c(CN3CC4(CCC3CO)CC4)c3c2CCC3)cccc1-c1ccccc1` (stereo not drawn) [Example 11, 5-(((4-((6-(hydroxymethyl)-5-azaspiro[2.5]octan-5-yl)methyl)-7-((2-methyl-[1,1′-biphenyl]-3-yl)methoxy)-2,3-dihydro-1H-inden-5-yl)oxy)methyl)nicotinonitrile], the IC50 on PD-1/PD-L1 interaction is under 100 nM. The “HLM % remaining @ 30 min” value in data set [1] turned out to be 21%. The “MLM % remaining @ 30 min” value in data set [2] is reported as 11%.

Take `N#Cc1c(COc2cc(OCC(F)(F)F)c(CN3CCCC[C@H]3CO)c3c2CCC3)cccc1-c1ccccc1` [Example 23, (S)-3-(((7-((2-(hydroxymethyl)piperidin-1-yl)methyl)-6-(2,2,2-trifluoroethoxy)-2,3-dihydro-1H-inden-4-yl)oxy)methyl)-[1,1′-biphenyl]-2-carbonitrile]: the half-inhibitory concentration (IC50) on PD-1/PD-L1 interaction was under 100 nM. The “HLM % remaining @ 30 min” value in data set [1] stood at 27%. The “MLM % remaining @ 30 min” value in data set [2] came out at 25%.

Regarding `Cc1ccc(-c2cccc(COc3cc(OCc4cncc(C#N)c4)c(CN4CCC4CO)c4c3CCC4)c2C)cc1` (stereo not drawn) [Example 73, 5-(((7-((2,4′-dimethyl-[1,1′-biphenyl]-3-yl)methoxy)-4-((2-(hydroxymethyl)azetidin-1-yl)methyl)-2,3-dihydro-1H-inden-5-yl)oxy)methyl)nicotinonitrile], the IC50 at PD-1/PD-L1 interaction is 100 to 500 nM.

Compound `Cc1c(COc2cc(OCc3cncc(C#N)c3)c(CN3CCC3CO)c3c2CCC3)cccc1-c1cnc2[nH]ccc2c1` (stereo not drawn) [Example 74, 5-(((4-((2-(hydroxymethyl)azetidin-1-yl)methyl)-7-((2-methyl-3-(1H-pyrrolo[2,3-b]pyridin-5-yl)benzyl)oxy)-2,3-dihydro-1H-inden-5-yl)oxy)methyl)nicotinonitrile 2,2,2-trifluoroacetate] yielded an IC50 at PD-1/PD-L1 interaction of over 500 nM.

`Cc1c(COc2cc(OCc3cncc(C#N)c3)c(CN3CCC3CO)c3c2CCC3)cccc1-c1ccc(C(C)(C)C)cc1` (stereo not drawn) [Example 75, 5-(((7-((4′-(tert-butyl)-2-methyl-[1,1′-biphenyl]-3-yl)methoxy)-4-((2-(hydroxymethyl)azetidin-1-yl)methyl)-2,3-dihydro-1H-inden-5-yl)oxy)methyl)nicotinonitrile] gave an IC50 at PD-1/PD-L1 interaction of over 500 nM.

`Cc1c(COc2cc(OCc3cncc(C#N)c3)c(CN3CCC3CO)c3c2CCC3)cccc1-c1ccc(F)cc1` (stereo not drawn) [Example 76, 5-(((7-((4′-fluoro-2-methyl-[1,1′-biphenyl]-3-yl)methoxy)-4-((2-(hydroxymethyl)azetidin-1-yl)methyl)-2,3-dihydro-1H-inden-5-yl)oxy)methyl)nicotinonitrile] displayed an IC50 at PD-1/PD-L1 interaction of 100 to 500 nM.

On to `Cc1c(COc2cc(Oc3ccccc3)c(CN3CCC3CO)c3c2CCC3)cccc1-c1ccccc1` (stereo not drawn) [Example 78, (1-((7-((2-methyl-[1,1′-biphenyl]-3-yl)methoxy)-5-phenoxy-2,3-dihydro-1H-inden-4-yl)methyl)azetidin-2-yl)methanol], for which the IC50 at PD-1/PD-L1 interaction is over 500 nM.

Consider `CNC(=O)NCC1CCCN1Cc1c(OCc2cncc(C#N)c2)cc(OCc2cccc(-c3ccccc3)c2C)c2c1CCC2` (stereo not drawn) [Example 80, 1-((1-((5-((5-cyanopyridin-3-yl)methoxy)-7-((2-methyl-[1,1′-biphenyl]-3-yl)methoxy)-2,3-dihydro-1H-inden-4-yl)methyl)pyrrolidin-2-yl)methyl)-3-methylurea formate], for which, on PD-1/PD-L1 interaction, the half-maximal inhibitory concentration (IC50) is under 100 nM.
